In US20240292837A1, “CHROMONE DERIVATIVES AS ATTRACTANTS AND REPELLENTS OF BLOOD-SUCKING, BITING INVERTEBRATES” (CENTRE NATIONAL DE LA RECHERCHE SCIENTIFIQUE, priority 2021, published 2024):

Columns and labels:
[1] = tested on: Aedes albopictus; assay: Evaluation of the repellent and/or attractant effect in a tunnel olfactometer; format: in vivo; conditions: for Control (±SD), mean number of mosquitoes in the control zone / Treated/Product (±SD), mean number of mosquitoes in the treated zone / Treated (±SD), mean number of mosquitoes in the treated zone: 15 females; for RI (%) repulsion index / Repulsion index 5 mg deposition / Repulsion index 10 mg deposition / Repulsion index 30 mg deposition / KI (%) kairomone index: negative = attractant; for repellent or attractant effect (in words): over the doses tested
Excerpt: The tunnel olfactometer is a 1 m long glass parallelepiped with a 5×5 cm side. The tube is equipped with 3 openings: two on each side, one for feeding in the paper impregnated with the product to be tested, and the other for the paper containing a control. The opening in the middle is for feeding in mosquitoes. Both ends of the tube are closed by covers.
The olfactometer is divided into three compartments or zones: • a neutral zone in the middle; • a test or treated area which is on the side of depositing the product; and • a control area which is located on the side of depositing the control.
For each test, 15 Aedes albopictus females (aged 5 to 12 days) are fed into the neutral zone of the tunnel olfactometer. Mosquitoes are kept for 10 minutes for a time of adaptation. Papers impregnated and dried with a solution of product in ethanol and pure ethanol as a reference are fed in, then the barriers are opened to allow mosquitoes to circulate freely inside the tube. Three test repetitions were carried out for each product. A repetition lasts 20 minutes and the results observed were recorded every 5 minutes.
The values measured are the activity index and the repulsion index. The activity index (Al) describes the percentage of mosquitoes in the control zone (T) and in the treated zone (P) with respect to the total number of mosquitoes tested. Said value should be greater than 30% for the test to be considered significant.
The repulsion index (RI) represents the percentage of the difference in the number of mosquitoes in the control part and in the treated part divided by the sum of the two values. A negative value of the parameter (RI) indicates an attractant activity (kairomone index. KI) of the product tested.
[formula] • Al: Activity index • RI: Repulsion index • T: Number of mosquitoes in the control area • P: Number of mosquitoes in the treated area

[2] = tested on: Aedes albopictus; assay: Evaluation of the combination 4-hydroxycoumarin / 7-nonyloxychromone (KI vs amount deposited, FIG. 1); format: in vivo
Excerpt: Said figure represents the IK (in %) as a function of the amount deposited (in mg).
It is possible to combine a chromone compound with other compounds of different structure.

| Structure (SMILES) | AI (%) activity index ([1]; dose 5 mg/ml) | Control (±SD), mean number of mosquitoes in the control zone ([1]; dose 5 mg/ml in treated zone) | Treated/Product (±SD), mean number of mosquitoes in the treated zone ([1]; dose 5 mg/ml) | AI (%) activity index ([1]; dose 10 mg/ml) | Control (±SD), mean number of mosquitoes in the control zone ([1]; dose 10 mg/ml in treated zone) | Treated/Product (±SD), mean number of mosquitoes in the treated zone ([1]; dose 10 mg/ml) | AI (%) activity index ([1]; dose 30 mg/ml) | Control (±SD), mean number of mosquitoes in the control zone ([1]; dose 30 mg/ml in treated zone) | Treated/Product (±SD), mean number of mosquitoes in the treated zone ([1]; dose 30 mg/ml) | repellent or attractant effect (in words) [1] | Repulsion index 5 mg deposition [1] | Repulsion index 10 mg deposition [1] | Repulsion index 30 mg deposition [1] | KI (%) kairomone index ([1]; dose 5 mg/ml) | KI (%) kairomone index ([1]; dose 10 mg/ml) | KI (%) kairomone index ([1]; dose 30 mg/ml) | also measured |
| --- | --- | --- | --- | --- | --- | --- | --- | --- | --- | --- | --- | --- | --- | --- | --- | --- | --- |
| CCC(C)Oc1ccc2c(=O)ccoc2c1 (racemic) [7-sec-butoxychromone] | 71.1% | 7.3 ± 0.4 | 3.3 ± 0.1 | 71.8% | 7.2 ± 0.9 | 3.6 ± 0.4 | 78% | 8.3 ± 0.5 | 3.4 ± 0.9 | repellent at any dose |  |  |  |  |  |  | RI (%) repulsion index ([1]; dose 5 mg/ml): 37.6%; RI (%) repulsion index ([1]; dose 10 mg/ml): 37.9%; RI (%) repulsion index ([1]; dose 30 mg/ml): 56.1%; AI (%) activity index ([1]; dose 60 mg/ml): 90.6%; Control (±SD), mean number of mosquitoes in the control zone ([1]; dose 60 mg/ml in treated zone): 11.8 ± 0.7; Treated/Product (±SD), mean number of mosquitoes in the treated zone ([1]; dose 60 mg/ml): 1.8 ± 0.2; RI (%) repulsion index ([1]; dose 60 mg/ml): 72.9% |
| CCCCCCCC(C)Oc1ccc2c(=O)ccoc2c1 (racemic) [7-sec-nonyloxychromone] | 83.9% | 2.2 ± 0.3 | 10.4 ± 0.1 | 91.7% | 2.5 ± 0.5 | 11.3 ± 0.0 | 88.3% | 4.8 ± 0.4 | 8.4 ± 0.2 | stays attractant | −65.8% | −63.7% | −27.1% | −65.8% | −63.6% | −27.1% | AI (%) activity index ([1]; dose 0.1 mg/ml): 91.1%; Control (±SD), mean number of mosquitoes in the control zone ([1]; dose 0.1 mg/ml in treated zone): 2.5 ± 0.2; Treated (±SD), mean number of mosquitoes in the treated zone ([1]; dose 0.1 mg/ml): 11.2 ± 0.6; KI (%) kairomone index ([1]; dose 0.1 mg/ml): −63.5%; AI (%) activity index ([1]; dose 2 mg/ml): 91.1%; Control (±SD), mean number of mosquitoes in the control zone ([1]; dose 2 mg/ml in treated zone): 1.4 ± 0.4; Treated (±SD), mean number of mosquitoes in the treated zone ([1]; dose 2 mg/ml): 12.3 ± 0.0; KI (%) kairomone index ([1]; dose 2 mg/ml): −79.8%; maximum value of KI ([1]; dose of 2 mg/ml, given as magnitude): ~80%; attractant activity (KI) ([1]; up to 10 mg/ml, given as magnitude): above 65%; change of attractant effect with dose (in words) ([2]; from the 10 mg dose onwards): significant decrease |
| CCCC(C)Oc1ccc2c(=O)ccoc2c1 (racemic) [7-sec-pentoxychromone] | 80.1% | 2.5 ± 0.3 | 9.5 ± 0.2 | 88.3% | 3.4 ± 0.4 | 9.8 ± 1.1 | 90% | 4.8 ± 0.4 | 8.7 ± 0.4 | attractant | −59.2% | −47.8% | −28.7% | −59.2% | −47.9% | −28.6% | AI (%) activity index ([1]; dose 1 mg/ml): 85%; Control (±SD), mean number of mosquitoes in the control zone ([1]; dose 1 mg/ml in treated zone): 3.5 ± 0.5; Treated (±SD), mean number of mosquitoes in the treated zone ([1]; dose 1 mg/ml): 9.3 ± 0.7; KI (%) kairomone index ([1]; dose 1 mg/ml): −45.6% |
| O=c1cc(O)c2ccccc2o1 [4-hydroxycoumarin] |  |  |  |  |  |  |  |  |  |  |  |  |  |  |  |  | increase in attraction ([2]; higher doses (10 and 30 mg) vs low doses): 10%; kairomone index KI ([2]; low dose (or quantity)): ~40% |
| CCCCCCCCCCOc1ccc2c(=O)ccoc2c1 [7-n-decyloxychromone] |  |  |  | 85% | 3.9 ± 0.3 | 8.8 ± 0.9 |  |  |  |  |  |  |  |  | −37.8 ± 5.2% |  | attractant effect compared with a reference attractant (in words) ([1]; same doses): attractant effect equivalent to that of 7-sec-nonyloxychromone |
| CCN(CC)C(=O)c1cccc(C)c1 [DEET, reference compound] |  |  |  |  |  |  |  |  |  |  | 55.5% | 60.4% | 59.1% |  |  |  |  |
